Measurements published in BindingDB's records for doi:10.1021/jm00080a018 (Toyo Jozo, 1992).
pIC50: −log10 of the molar value.

Molecular target: Adenosylhomocysteinase (Oryctolagus cuniculus)
Test: Inhibitory effect against S-adenosyl-L-homocysteine hydrolase of rabbit erythrocyte.

| SMILES | pIC50 |
| --- | --- |
| COCC1=C[C@@H](n2cnc3c(N)ncnc32)[C@H](O)[C@@H]1O | < 4.44 |
| Nc1ncnc2c1ncn2[C@@H]1C=C(CCl)[C@@H](O)[C@H]1O | < 4.45 |
| CC1=C[C@@H](n2cnc3c(N)ncnc32)[C@H](O)[C@@H]1O | < 4.39 |

Results, then the compound that gave them:

| pIC50 | SMILES |
| --- | --- |
| < 4.41 | C=CC1=C[C@@H](n2cnc3c(N)ncnc32)[C@H](O)[C@@H]1O |
| < 4.42 | Nc1ncnc2c1ncn2[C@@H]1C=C(CF)[C@@H](O)[C@H]1O |
| < 4.47 | CSCC1=C[C@@H](n2cnc3c(N)ncnc32)[C@H](O)[C@@H]1O |
